Columns and labels:
[1] = system: MCF-7 breast cancer cells; assay: Antiproliferative effects, crystal violet cell biomass assay, MCF-7; type: cell-based; settings: for IC50: 72 h incubation, crystal violet
Experimental: (§1) The growth inhibitory effects of ASA, Zeise’s salt as well as the thereof derived complexes 1a–4a were investigated in vitro against the HT-29 and the MCF-7 cell lines. Thereby, an already published crystal violet assay was employed, in which the cell biomass reduced by the substances was determined as parameter. Cisplatin was applied as positive control.
(§2) The HT-29 colon carcinoma and the MCF-7 breast cancer cell lines were obtained from the cell line service (CLS, Eppelheim, Germany). The HT-29 and the MCF-7 cells were cultivated as a monolayer in Dulbecco’s Modified Eagle Medium (DMEM) containing glucose (4.5 g/L) and lacking phenol red (GE Healthcare, Little Chalfont, UK), supplemented with fetal calf serum (FCS; 10%; Biochrom) and L-glutamine (584 mg/L; GE Healthcare). The cells were cultured in a humidified atmosphere (5% CO2/95% air) at 37 °C and were passaged regularly twice a week. The cell lines were characterized by typing short tandem repeats and routinely monitored for mycoplasma infection.
(§3) The effects of the newly synthesized substances on the cell biomass were determined in vitro while employing a crystal violet assay. The testing was performed following a modified protocol, as previously published. Exponentially growing HT-29 and MCF-7 cells were seeded in 96-well tissue culture plates with a density of 3 × 10^3 and 2 × 10^3 cells, respectively, in 100 µL of completed DMEM per well in quadruples. The plates were kept in a humidified atmosphere (5% CO2/95% air) at 37 °C for 24 h prior to the addition of completed medium containing the vehicle DMF, the positive control Cisplatin, and the compounds to be tested, respectively. After 72 h of incubation, the medium was removed, the cells were washed with PBS and fixed using a solution of glutaraldehyde in PBS (1%, v/v). The cell biomass was examined by staining the chromatin of adherent cells with crystal violet, extraction of the stain with ethanol (70%, v/v) and following measurement of absorbance (λ = 590 nm). The cell viability is given as percentage of cell viability of the vehicle treated control, which was set to 100%. The IC50 values represent the mean ± standard error of mean of ≥2 independent experiments and they were calculated with Prism 7.0 (GraphPad, San Diego, CA, USA) using nonlinear regression and decadal logarithm of the inhibitor versus variable slope equation. The top constraint was set to 100%.

ovine COX-2 = target: T1, ovine COX-2 (Ovis aries, UniProt P79208); assay: COX-2 isoenzyme inhibition (COX Inhibitor Screening Assay, enzyme immunoassay); type: biochemical; settings: for COX-2 inhibition: 10 µM, incubation 10 min, isolated enzyme
T1 construct: purchased Cayman Chemicals
T1 sequence (P79208 17-603): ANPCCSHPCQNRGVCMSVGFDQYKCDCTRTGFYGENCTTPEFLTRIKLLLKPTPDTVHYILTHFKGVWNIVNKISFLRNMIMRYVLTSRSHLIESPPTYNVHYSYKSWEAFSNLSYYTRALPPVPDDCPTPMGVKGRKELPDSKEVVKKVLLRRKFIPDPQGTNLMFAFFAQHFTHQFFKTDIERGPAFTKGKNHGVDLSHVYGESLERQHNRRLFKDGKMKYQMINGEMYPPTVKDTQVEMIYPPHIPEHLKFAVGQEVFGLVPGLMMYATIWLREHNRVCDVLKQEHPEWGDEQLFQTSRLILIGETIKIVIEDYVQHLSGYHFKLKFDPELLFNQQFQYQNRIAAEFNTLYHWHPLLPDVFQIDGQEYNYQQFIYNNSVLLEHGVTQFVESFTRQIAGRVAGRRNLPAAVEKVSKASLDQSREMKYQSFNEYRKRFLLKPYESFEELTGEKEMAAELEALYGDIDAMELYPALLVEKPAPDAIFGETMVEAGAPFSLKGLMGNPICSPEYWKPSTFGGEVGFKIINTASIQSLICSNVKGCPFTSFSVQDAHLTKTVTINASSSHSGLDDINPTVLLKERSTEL
Experimental: (§4) The impact of the compounds (10 µM) to inhibit the isoenzymes COX-1 and COX-2, respectively, was investigated (Figure 5).
(§5) The inhibition of both isolated isoenzymes, ovine COX-1 and ovine COX-2, respectively, were investigated at a concentration of 10 µM of the respective substances while employing an enzyme immunoassay (COX Inhibitor Screening Assay, Cayman Chemicals, Ann Arbor, MI, USA). The conduction of the assay was performed following the manufacturer’s protocol. Thereby, the isoenzymes were incubated with the particular compounds for exactly 10 min. The values express the mean of duplicate determinations and they represent the mean ± standard deviation of ≥2 independent experiments. The untreated control was set to 0% inhibition.
(§6) Figure 5 Inhibition of isolated ovine COX-1 and COX-2. Values are given as % COX inhibition calculated from initial activity of vehicle treated enzyme and represent the mean ± standard deviation of ≥2 independent experiments.

ovine COX-1 = target: T2, ovine COX-1 (Ovis aries, UniProt P05979); assay: COX-1 isoenzyme inhibition (COX Inhibitor Screening Assay, enzyme immunoassay); type: biochemical; settings: 10 µM, incubation 10 min, isolated enzyme
T2 construct: purchased Cayman Chemicals
T2 sequence (P05979 25-600): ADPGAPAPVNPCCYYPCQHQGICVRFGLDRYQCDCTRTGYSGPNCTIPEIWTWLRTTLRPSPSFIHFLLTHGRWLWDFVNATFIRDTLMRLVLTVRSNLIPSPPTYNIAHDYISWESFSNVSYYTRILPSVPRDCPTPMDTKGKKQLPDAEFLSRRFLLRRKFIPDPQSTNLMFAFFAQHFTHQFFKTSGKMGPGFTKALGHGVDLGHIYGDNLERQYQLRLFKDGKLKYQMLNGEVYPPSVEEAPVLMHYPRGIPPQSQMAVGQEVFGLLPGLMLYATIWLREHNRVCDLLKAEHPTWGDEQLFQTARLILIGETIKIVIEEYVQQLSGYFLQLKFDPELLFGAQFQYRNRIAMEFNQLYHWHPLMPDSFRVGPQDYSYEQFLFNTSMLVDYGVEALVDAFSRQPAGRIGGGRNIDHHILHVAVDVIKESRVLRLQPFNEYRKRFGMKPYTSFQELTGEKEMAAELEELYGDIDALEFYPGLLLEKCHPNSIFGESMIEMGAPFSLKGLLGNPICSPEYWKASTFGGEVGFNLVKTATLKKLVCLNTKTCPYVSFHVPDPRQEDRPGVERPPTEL
Experimental: as §4, §5, §6

[2] = design: method as in doi:10.1002/zaac.19603050315; settings: degrades in a redox reaction building acetaldehyde and Pt(0); cited from earlier work
[3] = system: HT-29 colon carcinoma cells; assay: Antiproliferative effects, crystal violet cell biomass assay, HT-29; type: cell-based; settings: for IC50: 72 h incubation, crystal violet
Experimental: as §1, §2, §3

[4] = Stability in other media (aqueous conditions, cell culture medium, DMSO); type: physicochemical; settings: degraded immediately after addition
[5] = Evaluation of stability by capillary electrophoresis; type: physicochemical
Description: Capillary electrophoresis (CE) was employed in order to determine the stability of the anionic platinum(II) complexes in aqueous media. Therefore, a method was established that allowed the detection of the respective complex and possible degradation products in a short period of time (for further information on the setup see Section 4). Methanol was chosen as a non-coordinating co-solvent for the sample solutions (final amount of methanol: 50%) in order to guarantee the solubility of decomposition products. In contrast to HPLC analysis, it was possible to separate the platinum complex (tm = 6.3 min) from the free ligand (tm = 4.4 min) using a 50 mM sodium tetraborate solution (pH = 9.3) as the background electrolyte (temperature: 25 °C; UV-detection: 230 nm; capillary: fused silica 64.5 cm × 75 µm, effective length 56 cm; 20 kV). […] The reactions followed pseudo-first order kinetics (R^2 ≥ 0.99) under the experimental conditions that were implemented.
A 50 mM sodium tetraborate solution with a pH of 9.3 (adjusted with 1 M NaOH solution) was used as the background electrolyte (BGE). Prior to the first utilization new capillaries were washed with 1 M NaOH solution (45 min), water (45 min) and BGE (45 min). Samples were injected into the capillary via hydrodynamic mode (50 mbar for 2 s). The capillary was thermostated at 25 °C, whereas the autosampler was kept at 37 °C by an external water bath. The separation voltage was 20 kV and the detection wavelength was set to 230 nm. The required run time was 10 min. The capillary was flushed consecutively with 0.1 M NaOH solution (3 min), water (3 min), and BGE (5 min) before each measurement. For the purpose of stability testing, the complexes were dissolved in methanol and diluted 1:1 (v/v) with water, 1.8% aqueous NaCl solution, or double-concentrated PBS to a final concentration of 1 mM. Every experiment was performed in triplicate. The half-lives are presented as mean ± standard deviation. All of the samples, buffers, and washing solutions were membrane filtered (0.22 µm porosity) and degassed by ultrasonication prior to usage.

[6] = methanol/water 1:1, 1 mM, 37 °C
[7] = up to a concentration of 100 µM

| Molecule | IC50 [1] | COX-2 inhibition (ovine COX-2) | COX-1 inhibition (ovine COX-1) | stability under aqueous conditions [2] | IC50 [3] | stability in cell culture medium [4] | recovery of the intact complex ([5]; 154 mM Cl− in 50% methanol/water, after 168 h) | half-live (τ1/2) ([5]; PBS pH 7.4 in methanol/water, degraded to Pt-Butene-SA) | half-live (τ1/2) [5, 6] | IC50 ([1]; Homo sapiens, MCF7) | antiproliferative activity against MCF-7 [1, 7] | inhibition at 10 µM (ovine COX-2; read-out: COX-2 inhibition) | IC50 ([3]; Homo sapiens, HT-29) | antiproliferative activity against HT-29 [3, 7] | stability in methanol ([5]; methanol, 48 h) |
| --- | --- | --- | --- | --- | --- | --- | --- | --- | --- | --- | --- | --- | --- | --- | --- |
| C=C.[Cl-].[Cl-].[Cl-].[K+].[Pt+2] [Zeise’s salt, potassium trichlorido[ethylene]platinate(II)] | ≥ 50 µM | 11.3% | 83.8% | very unstable | ≥ 50 µM | not stable |  |  |  |  |  |  |  |  |  |
| Potassium {trichlorido[η^2-(but-3-en-1-yl)-2-acetoxybenzoate]platinate(II)} [Compound 2a] | 30.1 ± 1.5 µM | 28.7% | 70.0% |  | 31.4 ± 0.4 µM |  | 80.3 ± 3.2% | 7.95 ± 0.09 h | 69.6 ± 3.0 h |  |  |  |  |  |  |
| CC(=O)Oc1ccccc1C(=O)O [ASA, acetylsalicylic acid] |  |  | 29.2% |  |  |  |  |  |  | ≥ 50 µM | inactive | 1% | ≥ 50 µM | inactive |  |
| N.N.[Cl][Pt][Cl] [Cisplatin, reference compound] | 3.7 ± 0.3 µM |  |  |  | 2.6 ± 0.1 µM |  |  |  |  |  |  |  |  |  |  |
| Potassium {trichlorido[η^2-(prop-2-en-1-yl)-2-acetoxybenzoate]platinate(II)} [Compound 1a] | ≥ 50 µM | 17.4% | 67.3% |  | 49.7 ± 1.8 µM |  |  |  | 0.595 ± 0.01 h |  |  |  |  |  | stable |
| Potassium {trichlorido[η^2-(pent-4-en-1-yl)-2-acetoxybenzoate]platinate(II)} [Compound 3a] | 37.4 ± 2.5 µM | 15.3% | 93.8% |  | 44.2 ± 3.4 µM |  |  |  | 73.5 ± 4.7 h |  |  |  |  |  |  |
| Potassium {trichlorido[η^2-(hex-5-en-1-yl)-2-acetoxybenzoate]platinate(II)} [Compound 4a] | 43.7 ± 5.7 µM | 33.0% | 96.6% |  | 41.4 ± 0.3 µM |  |  |  | 55.4 ± 4.0 h |  |  |  |  |  |  |
